{"source": "patent US11365175B2", "about": "“Aromatic amides having a fungicidal activity, their agronomic compositions and relative preparation method” (ISAGRO S.p.A., priority 2017, dated 2022)", "format_in_all_cases": "in vivo", "key": {"[1]": {"system": "Plasmopara viticola", "assay": "Preventive activity (7 days) against Plasmopara viticola on vines", "conditions": "vine Merlot, inoculation 7 days after treatment, reduction of diseased leaf area vs non-treated", "experimental": "Determination of the Preventive Activity (7 Days) of the Compounds Having Formula (I) Against Plasmopara viticola on Vines\nLeaves of vine plants of the Merlot variety, grown in pots, in a conditioned environment, (20±1° C., 70% of R.H.) were treated by spraying both sides with the compound under examination.\n7 days after the treatment, the plants were inoculated with an aqueous suspension of spores of Plasmopara viticola (200,000 spores/cc) by spraying both sides of the leaves with a compressed air gun.\nAfter remaining 24 hours in a humidity-saturated environment, at 21° C. the plants were transferred for an incubation period (7 days) in a conditioned environment at 70% of R H. and at 24° C.\nAt the end of this period, the external symptoms of the pathogen appeared and it was therefore possible to proceed with the evaluation of the intensity of the infection.\nThe fungicidal activity was expressed as the reduction percentage, with respect to non-treated seedlings, in the area of the leaf affected by the disease (100=full effectiveness; 0=zero effectiveness)."}, "[2]": {"system": "Puccinia recondita", "assay": "Preventive fungicidal activity (5 days) against Puccinia recondita on wheat", "conditions": "for P5 activity NT (parts developed during the test) / P5 activity T (parts treated directly with the products): wheat Salgemma, inoculation 5 days after spraying, reduction of diseased leaf area vs non-treated", "experimental": "Determination of the Preventive Fungicidal Activity (5 Days) Against Puccinia recondita on Wheat\nLeaves of wheat plants of the Salgemma variety, grown in pots in a conditioned environment at 20° C. and 70% of Relative Humidity (RH) were treated by spraying both sides of the leaves with the compound under examination (see Table 4 hereunder) dispersed in a hydroacetone solution at 20% by volume of acetone.\nAfter remaining 5 days in a conditioned environment, the plants were sprayed on both sides of the leaves with an aqueous suspension of conidia of Puccinia recondita (2 mg of inoculum per 1 ml of solution for infection).\nAfter spraying, the plants were kept in a humidity-saturated environment at a temperature ranging from 18 to 24° C. for the incubation period of the fungus (1 day).\nAt the end of this period, the plants were put in a greenhouse with a relative humidity (RH) of 70% and at a temperature of 18-24° C. for 14 days.\nAt the end of this period, the external symptoms of the pathogen appeared and it was therefore possible to proceed with the visual evaluation of the intensity of the infection, both on the parts treated directly with the products (T) and on the parts developed during the implementation of the test (NT).\nThe fungicidal activity is expressed as a percentage of the reduction, with respect to non-treated seedlings (comparison), in the area of the leaf affected by the disease (100=full effectiveness; 0=zero effectiveness)."}, "[3]": {"system": "Helmintosporium teres", "assay": "Fungicidal activity against Helmintosporium teres on barley", "conditions": "barley cv. Gemini, scale 0 (plant completely infected) to 100 (healthy plant)", "experimental": "Determination of the Fungicidal Activity of the Compounds Having Formula (I) Against Helmintosporium Teres on Barley\nLeaves of barley plants (cultivar Gemini), grown in pots in a conditioned environment (20±1° C., 70% of R.H.), were treated by spraying both sides of the leaves with the compounds under examination, dispersed in a […] solution at 20% by volume of acetone.\nAfter remaining 5 days in a conditioned environment, the plants were sprayed on both sides of the leaves with an aqueous suspension of conidia of Helmintosporium teres (50,000 conidia per cm^3 (adding Tween 20-1 drop/100 ml).\nThe plants were then kept in a controlled environment during the incubation period of the fungus (1 day wet room for infection, 3 days in a cell with R.H. 70% and […] for the incubation period, 3 days for wet room evasion, 12 days biological cycle).\nAt the end of this period (12 days), the fungicidal activity was evaluated according to an evaluation percentage scale from 0 (plant completely infected) to 100 (healthy plant)."}}}
{"smiles": "CC(C)C(=O)OCOc1c(NC=O)cccc1C(=O)NC1CC(C)(C)CC(C)(C)C1", "note": "[Compound 1, 3-formylamino-2-[(2-methyl-propanoyl-oxy)methoxy]-N-(3,3,5,5-tetramethylcyclohexyl)benzamide]", "values": [{"measurement": "P7 activity", "setting": "[1]; 30 ppm", "result": 100, "unit": "%"}, {"measurement": "P7 activity", "setting": "[1]; 125 ppm", "result": 100, "unit": "%"}, {"measurement": "P5 activity NT (parts developed during the test)", "setting": "[2]; 125 ppm", "result": 60, "unit": "%"}, {"measurement": "P5 activity T (parts treated directly with the products)", "setting": "[2]; 125 ppm", "result": 70, "unit": "%"}, {"measurement": "P5 activity NT (parts developed during the test)", "setting": "[2]; 250 ppm", "result": 65, "unit": "%"}, {"measurement": "P5 activity T (parts treated directly with the products)", "setting": "[2]; 250 ppm", "result": 75, "unit": "%"}, {"measurement": "fungicidal activity (full activity)", "setting": "[2]; dosage of 250 ppm, T/NT not specified", "result": 100, "unit": "%"}, {"measurement": "P7 activity", "setting": "[3]; 125 ppm", "result": 75, "unit": "%"}, {"measurement": "P7 activity", "setting": "[3]; 250 ppm", "result": 80, "unit": "%"}]}
{"smiles": "CC(C)C(=O)OCOc1c(C(=O)NC2CC(C)(C)CC(C)(C)C2)cccc1N(C=O)COC(=O)C(C)C", "note": "[Compound 4, 3-(N′-formyl-N′-[(2-methylpropanoyl-oxy)methyl]amino)-2-[(2-methylpropanoyloxy)methoxy]-N-(3,3,5,5-tetramethylcyclohexyl)-benzamide]", "values": [{"measurement": "P7 activity", "setting": "[1]; 30 ppm", "result": 100, "unit": "%"}, {"measurement": "P7 activity", "setting": "[1]; 125 ppm", "result": 100, "unit": "%"}, {"measurement": "P5 activity NT (parts developed during the test)", "setting": "[2]; 125 ppm", "result": 65, "unit": "%"}, {"measurement": "P5 activity T (parts treated directly with the products)", "setting": "[2]; 125 ppm", "result": 70, "unit": "%"}, {"measurement": "P5 activity NT (parts developed during the test)", "setting": "[2]; 250 ppm", "result": 70, "unit": "%"}, {"measurement": "P5 activity T (parts treated directly with the products)", "setting": "[2]; 250 ppm", "result": 80, "unit": "%"}]}
{"smiles": "CC1(C)CC(NC(=O)c2cccc(NC=O)c2O)CC(C)(C)C1", "note": "[CR1, 3-formylamino-2-hydroxy-N-(3,3,5,5-tetramethylcyclohexyl)benzamide, reference compound]", "values": [{"measurement": "P7 activity", "setting": "[1]; 30 ppm", "result": 50, "unit": "%"}, {"measurement": "P7 activity", "setting": "[1]; 125 ppm", "result": 65, "unit": "%"}, {"measurement": "P5 activity NT (parts developed during the test)", "setting": "[2]; 125 ppm", "result": 35, "unit": "%"}, {"measurement": "P5 activity T (parts treated directly with the products)", "setting": "[2]; 125 ppm", "result": 50, "unit": "%"}, {"measurement": "P5 activity NT (parts developed during the test)", "setting": "[2]; 250 ppm", "result": 50, "unit": "%"}, {"measurement": "P5 activity T (parts treated directly with the products)", "setting": "[2]; 250 ppm", "result": 65, "unit": "%"}, {"measurement": "P7 activity", "setting": "[3]; 125 ppm", "result": 5, "unit": "%"}, {"measurement": "P7 activity", "setting": "[3]; 250 ppm", "result": 15, "unit": "%"}]}
